{
  "source": "patent US4880820A",
  "about": "“Guanine derivatives” (Merck & Co., Inc., priority 1988, dated 1989)",
  "key": {"[1]": {"tested_on": "Herpes simplex virus Type 1 (Schooler)", "assay": "Method 1: inhibition of viral induced cytopathology in primary rabbit kidney cell cultures, HSV-1", "format": "cell-based", "conditions": "Human alphaherpesvirus 1; HSV-1 (Schooler), primary rabbit kidney cells; total suppression of cytopathology in 50% of cultures; read-out: Minimum Effective Concentration", "experimental": "(§1) Method 1: Confluent monolayers of primary rabbit kidney cell cultures were refed with maintenance medium containing serial dilutions of the test compounds and incubated overnight at 37° C. At each dilution, four cultures were challenged with approximately 10 TCID50 HSV-1, four cultures were challenged with approximately 10 TCID50 HSV-2,and two cultures were left as toxicity controls. Cultures were reincubated at 37° C. and observed for viral induced cytopathology at days 5 and 7. Minimum Effective Concentration (μg/ml) is defined as the concentration of antiviral compound required to totally suppress the development of viral cytopathology in 50% of the infected rabbit kidney cell cultures."}, "[2]": {"tested_on": "Herpes simplex virus Type 2 (Curtis)", "assay": "Method 1: inhibition of viral induced cytopathology in primary rabbit kidney cell cultures, HSV-2", "format": "cell-based", "conditions": "Human alphaherpesvirus 2; HSV-2 (Curtis), primary rabbit kidney cells; total suppression of cytopathology in 50% of cultures; read-out: Minimum Effective Concentration", "experimental": "as §1"}, "[3]": {"tested_on": "Herpes simplex virus Type 1 (Schooler)", "assay": "Method 2: virus plaque reduction in MRC-5 cells, HSV-1", "format": "cell-based", "experimental": "Method 2: Confluent monolayers of MRC-5 cells were incubated for one hour at 37° C. with 50-100 plaque forming units of the indicated virus. Following incubation, the cell monolayers were refed with maintenance medium containing 2% methyl cellulose and the chemical agent indicated. Duplicate cultures were incubated with each concentration of the chemical agent tested. Following further incubation for 3 days at 37° C., the monolayers were stained and the developed virus plaques were counted. The concentration (μg/ml) of each chemical agent which reduced plaque development by 50% (ED50) was determined."}, "[4]": {"tested_on": "Herpes simplex virus type 1 (HSV-1), strain Schooler", "assay": "Parenteral (subcutaneous) treatment of Herpes simplex virus type 1 infection in mice", "format": "in vivo, ICR/Ha mice", "conditions": "for Avg. Survival Time / Percent Survival: s.c.", "experimental": "(§2) Twenty gram ICR/Ha mice were injected intraperitoneally (ip) with 0.5 ml of a 10^-5 dilution of a stock preparation of Herpes simplex virus type 1 (HSV-1), strain Schooler. This virus challenge infected each animal with approximately 50 to 100 LD50. Starting immediately after virus infection and continuing twice daily for 4 days, each animal was injected subcutaneously in groups of 10 with: 125 μg, 31 μg, 8 μg or 2 μg of compounds A, B or C; or placebo (physiological saline, pH 11.5). All compounds were solubilized in physiological saline, pH 11.5. The mice were observed daily for 15 days at the same time each day and the day of death was recorded for each animal.\nStatistical analyses [reference: Liddel, F.D.K., Evaluation of Survival in Challenge Experiments, Microbiol. Rev., 42, 237 (1978)]were performed on survival times transformed by the negative exponential transformation:\nt=number of days an animal survived\nT=duration of trial (15 days)\nA continuity correction was used to account for daily observation:\nWithin each group, mice surviving through the trial period were assigned equally values of 0.9 and 1.0 to adjust for termination of the trial.\nAverage survival time per group was calculated from average corrected transformed survival times [fc (t)] as follows:\nt avg=[T/log(0.1).[log(1-fc (t)]"}, "[5]": {"tested_on": "Herpes simplex virus type 1 (HSV-1), strain Schooler", "assay": "Oral treatment of intraperitoneal HSV-1 infection of mice (Example 16)", "format": "in vivo, ICR/Ha mice", "experimental": "as §2, with “(i.p.)” for “(ip)”, “LD50 s.” for “LD50.”, “7” for “4”, “treated by oral gavage” for “injected subcutaneously”, “with: 250 μg, 125 μg, 8 μg or 2 μg of (S)-9-(2,3-dihydroxy-1-propoxymethyl)guanine; 500 μg,” for “with:”, “racemic 9-(2,3-dihydroxy-1-propoxymethyl)guanine;” for “compounds A, B or C;”\n(§3) The statistical analyses were carried out as described in Example 15."}, "[6]": {"tested_on": "Herpes simplex virus type 1 (HSV-1), strain Schooler", "assay": "Oral treatment of intraperitoneal HSV-1 infection of mice (Example 17)", "format": "in vivo, ICR/Ha mice", "conditions": "for Percent Survival: at 15 days", "experimental": "Twenty gram ICR/Ha mice were injected intraperitoneally (i.p.) with 0.5 ml of a 10^-5 dilution of a stock preparation of Herpes Simplex virus type 1 (HSV-1), strain Schooler. This virus challenge infected mice with approximately 50 to 100 LD50. Starting immediately after virus infection and continuing twice daily for 7 days, each animal was treated by oral gavage in groups of 10 with: 500 μg, 125 μg, 31 μg or 8 μg of (S)-9-(2,3-dihydroxy-1propoxymethyl)guanine; 500 μg, 125 μg, 31 μg or 8 μg of acyclovir or placebo (physiological saline, pH 11.5). All compounds were solubilized in physiological saline, pH 11.5.\nas §3"}, "herpes viruses": {"tested_on": "herpes viruses", "assay": "antiviral activity against herpes viruses (general statement)"}, "[7]": {"conditions": "125 μg/dose twice daily for 7 days, 12.5 mg/kg/day"}, "[8]": {"conditions": "500 μg/dose twice daily for 7 days, 50 mg/kg/day"}},
  "note": "“Also recorded” adds a separate entry of the source.",
  "data": [
    {"smiles": "Nc1nc2c(ncn2COC[C@@H](O)CO)c(=O)[nH]1", "note": "[A, (S)-9-(2,3-dihydroxy-1-propoxymethyl)guanine]", "values": [
      {"measurement": "minimal effective concentration", "setting": "[1]", "value": "0.8 to 1.5", "unit": "µg/mL"},
      {"measurement": "minimal effective concentration", "setting": "[2]", "value": 3.1, "unit": "µg/mL"},
      {"measurement": "fold more effective than B in protecting cell cultures against HSV-1 infection", "setting": "[3]; A vs B, conclusion of Example 14 (Methods 1 and 2)", "value": "10 to 25", "unit": "fold"},
      {"measurement": "fold more active than C in protecting cell cultures against HSV-1 infection", "setting": "[3]; A vs C, conclusion of Example 14 (Methods 1 and 2)", "value": "about 2 fold"},
      {"measurement": "EC50", "setting": "[3]; Human alphaherpesvirus 1, MRC5, 72 h, HSV-1 (Schooler), MRC-5 cells, 3 days, 50% reduction of plaque development, read-out: ED50 (the source's name)", "value": 0.5, "unit": "µg/mL"},
      {"measurement": "relative potency of A to C", "setting": "[4]; parallel line analysis, not statistically significant", "value": 2.3},
      {"measurement": "relative potency of A to B", "setting": "[4]; parallel line analysis, statistically significant", "value": 5.3},
      {"measurement": "Avg. Survival Time", "setting": "[4]; 2 μg/dose twice daily for 4 days, 0.2 mg/kg/day, ^3 (all): not statistically different from placebo", "value": 6.1, "unit": "days"},
      {"measurement": "Percent Survival", "setting": "[4]; 2 μg/dose twice daily for 4 days, 0.2 mg/kg/day, at 15 days", "value": 0, "unit": "%"},
      {"measurement": "Avg. Survival Time", "setting": "[4]; 8 μg/dose twice daily for 4 days, 0.8 mg/kg/day, ^3 (all): not statistically different from placebo", "value": 6.7, "unit": "days"},
      {"measurement": "Percent Survival", "setting": "[4]; 8 μg/dose twice daily for 4 days, 0.8 mg/kg/day, at 15 days", "value": 0, "unit": "%"},
      {"measurement": "Avg. Survival Time", "setting": "[4]; 31 μg/dose twice daily for 4 days, 3.1 mg/kg/day, ^3 (all): not statistically different from placebo", "value": 7.6, "unit": "days"},
      {"measurement": "Percent Survival", "setting": "[4]; 31 μg/dose twice daily for 4 days, 3.1 mg/kg/day, at 15 days", "value": 10, "unit": "%"},
      {"measurement": "Avg. Survival Time", "setting": "[4]; 125 μg/dose twice daily for 4 days, 12.5 mg/kg/day, ^3 (B, acyclovir): not statistically different from placebo", "value": 10.7, "unit": "days"},
      {"measurement": "Percent Survival", "setting": "[4]; 125 μg/dose twice daily for 4 days, 12.5 mg/kg/day, at 15 days (acyclovir not at the same time)", "value": 40, "unit": "%"},
      {"measurement": "Avg. Survival Time", "setting": "[5]; 2 μg/dose twice daily for 7 days, 0.2 mg/kg/day, ^3 (all): not statistically different from placebo", "value": 7.2, "unit": "days"},
      {"measurement": "Percent Survival", "setting": "[5]; 2 μg/dose twice daily for 7 days, 0.2 mg/kg/day, at 15 days", "value": 0, "unit": "%"},
      {"measurement": "Avg. Survival Time", "setting": "[5]; 8 μg/dose twice daily for 7 days, 0.8 mg/kg/day, ^3 (all): not statistically different from placebo", "value": 7.2, "unit": "days"},
      {"measurement": "Percent Survival", "setting": "[5]; 8 μg/dose twice daily for 7 days, 0.8 mg/kg/day, at 15 days", "value": 0, "unit": "%"},
      {"measurement": "Avg. Survival Time", "setting": "[5]; 31 μg/dose twice daily for 7 days, 3.1 mg/kg/day, ^3 (all): not statistically different from placebo", "value": 7.5, "unit": "days"},
      {"measurement": "Percent Survival", "setting": "[5]; 31 μg/dose twice daily for 7 days, 3.1 mg/kg/day, at 15 days (acyclovir not at the same time)", "value": 0, "unit": "%"},
      {"measurement": "Avg. Survival Time", "setting": "[5]; 125 μg/dose twice daily for 7 days, 12.5 mg/kg/day, ^3 (racemate, acyclovir): not statistically different from placebo", "value": 10.2, "unit": "days"},
      {"measurement": "Percent Survival", "setting": "[5]; 125 μg/dose twice daily for 7 days, 12.5 mg/kg/day, at 15 days (acyclovir not at the same time)", "value": 20, "unit": "%"},
      {"measurement": "Avg. Survival Time", "setting": "[5]; 250 μg/dose twice daily for 7 days, 25 mg/kg/day", "value": 9.8, "unit": "days"},
      {"measurement": "Percent Survival", "setting": "[5]; 250 μg/dose twice daily for 7 days, 25 mg/kg/day, at 15 days", "value": 10, "unit": "%"},
      {"measurement": "protection over placebo-treated animals, as measured by average survival time", "setting": "[5]; 12.5 mg/kg/day", "value": "conferred significant protection over placebo-treated animals"},
      {"measurement": "protection over placebo-treated animals, as measured by average survival time", "setting": "[5]; 25 mg/kg/day", "value": "conferred significant protection over placebo-treated animals"},
      {"measurement": "Avg. Survival Time", "setting": "[6]; 8 μg/dose twice daily for 7 days, 0.8 mg/kg/day, ^b (all): not statistically different from placebo", "value": 6.2, "unit": "days"},
      {"measurement": "Percent Survival", "setting": "[6]; 8 μg/dose twice daily for 7 days, 0.8 mg/kg/day", "value": 0, "unit": "%"},
      {"measurement": "Avg. Survival Time", "setting": "[6]; 31 μg/dose twice daily for 7 days, 3.1 mg/kg/day, ^b (all): not statistically different from placebo", "value": 6.9, "unit": "days"},
      {"measurement": "Percent Survival", "setting": "[6]; 31 μg/dose twice daily for 7 days, 3.1 mg/kg/day", "value": 0, "unit": "%"},
      {"measurement": "Avg. Survival Time", "setting": "[6]; [7]", "value": 8.1, "unit": "days"},
      {"measurement": "Percent Survival", "setting": "[6]; [7]", "value": 0, "unit": "%"},
      {"measurement": "Avg. Survival Time", "setting": "[6]; [8]", "value": 12.9, "unit": "days"},
      {"measurement": "Percent Survival", "setting": "[6]; [8]", "value": 30, "unit": "%"},
      {"measurement": "protection over placebo-treated animals, as measured by average survival time", "setting": "[6]; 12.5 mg/kg/day", "value": "conferred significant protection over placebo-treated animals"},
      {"measurement": "protection over placebo-treated animals, as measured by average survival time", "setting": "[6]; 50 mg/kg/day", "value": "conferred significant protection over placebo-treated animals"},
      {"measurement": "relative potency to acyclovir", "setting": "[6]; statistically significant", "value": 2.8},
      {"measurement": "antiviral (antiherpetic) activity", "setting": "herpes viruses; general statement in words", "value": "substantial antiviral activity against various herpes viruses; also recorded: potent antiherpetic activity"},
      {"measurement": "antiviral (antiherpetic) activity compared with acyclovir", "setting": "herpes viruses; vs 9-(2-hydroxyethoxymethyl)guanine (acyclovir)", "value": "significantly greater antiviral activity; also recorded: much more potent"},
      {"measurement": "antiherpetic activity compared with the racemic mixture or the (R)-enantiomer", "setting": "herpes viruses; vs racemic mixture or (R)-enantiomer", "value": "better than the corresponding racemic mixture or the (R)-enantiomer"}
    ]}
  ]
}
